Source: ChEMBL document CHEMBL3137667, “[Drug-induced liver injury; fourteenth updated edition of the bibliographic database of liver injuries and related drugs]” (Gastroenterol Clin Biol, 2004)

What was measured:
[1] = Highest frequency of moderate liver toxicity observed during clinical trials, expressed as a percentage. [column '% BIOL' in source]; details: human
[2] = Highest frequency of acute liver toxicity observed during clinical trials, expressed as a percentage. [column '% AIGUE' in source]; details: human
[3] = Times to onset, minimal and maximal, observed in the indexed observations. [column 'DELAI' in source]; details: human
[4] = human, serum
[5] = human, serum; remark: listed apart in the source
[6] = human
[7] = human; remark: listed apart in the source
[8] = human; remark: listed apart in the source
[9] = human, serum, 4383 h
[10] = human; remark: listed apart in the source
[11] = human; remark: listed apart in the source
[12] = human; remark: listed apart in the source
[13] = human; remark: listed apart in the source
[14] = human; remark: listed apart in the source
[15] = human; remark: listed apart in the source
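For Hepatotoxicity (association with vascular disease) in this document: count of indexed literature references reporting vascular liver injury in humans, e.g. peliosis hepatitis, hepatic veno-occlusive disease or Budd-Chiari syndrome.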
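For Hepatotoxicity (benign tumour) in this document: value is a count of indexed literature references citing a benign tumour confirmed by histopathology.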
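For Hepatotoxicity (choleostasis) in this document: human cholestatic liver injury, shown by histopathology or by peak ALT or AST elevation over alkaline phosphatase ratio below 2, value counts indexed literature reports.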
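For Hepatotoxicity (chronic liver disease) in this document: chronic liver injury confirmed by histopathology or persistently raised serum aminotransferase activity beyond 6 months, value given as the count of indexed literature references.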
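For Hepatotoxicity (cirrhosis) in this document: value is a count of indexed literature references reporting cirrhosis confirmed by histopathology.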
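For Hepatotoxicity (cytolytic) in this document: human cytolytic liver injury, shown by histopathology or by a ratio above 5 of peak ALT or AST elevation to alkaline phosphatase elevation, value counts indexed references.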
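For Hepatotoxicity (granulomatous hepatitis) in this document: value is a count of indexed literature references reporting granulomatous liver disease confirmed by histopathology.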
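For Hepatotoxicity (malignant tumour) in this document: malignant tumour confirmed by histopathology, value gives the count of indexed literature references reporting it.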
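For Hepatotoxicity (severe hepatitis) in this document: human clinical data: severe hepatitis, meaning potentially life-threatening liver failure or clinically observed cases, the value counts how many indexed literature references report it.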
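For Hepatotoxicity (steatosis) in this document: steatosis confirmed by histopathology, value is the count of indexed references.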

With `CC1Cc2ccccc2N1NC(=O)c1ccc(Cl)c(S(N)(=O)=O)c1` (stereo not given) [INDAPAMIDE] the “Hepatotoxicity (moderate)” value ([1]; Liver) was 0%, the “Hepatotoxicity (acute)” value ([2]; Liver) was 0% and the “Hepatotoxicity (time to onset)” value [3] was 6 months - 5 years. The “Hepatotoxicity (moderate)” value [4] was 1, the “Hepatotoxicity (acute)” value [5] was 4 and the “Hepatotoxicity (cytolytic)” value [6] was 3. For the same molecule, the “Hepatotoxicity (choleostasis)” value [7] was 1, the “Hepatotoxicity (severe hepatitis)” value ([8]; Liver) was 1 and the “Hepatotoxicity (chronic liver disease)” value [9] was 0. For the same molecule, the “Hepatotoxicity (cirrhosis)” value [10] was 0, the “Hepatotoxicity (granulomatous hepatitis)” value [11] was 0 and the “Hepatotoxicity (association with vascular disease)” value [12] was 0. The “Hepatotoxicity (steatosis)” value [13] was 0, the “Hepatotoxicity (malignant tumour)” value [14] was 0 and the “Hepatotoxicity (benign tumour)” value [15] was 0.
For `C[C@H](O)C(=O)Nc1c(I)c(C(=O)NC(CO)CO)c(I)c(C(=O)NC(CO)CO)c1I` [IOPAMIDOL], the “Hepatotoxicity (moderate)” value [1] was 0%, the “Hepatotoxicity (acute)” value [2] was 0% and the “Hepatotoxicity (time to onset)” value [3] was 0.5 h. The “Hepatotoxicity (moderate)” value [4] was 0, the “Hepatotoxicity (acute)” value [5] was 1 and the “Hepatotoxicity (cytolytic)” value [6] was 1. For the same molecule, the “Hepatotoxicity (choleostasis)” value [7] was 0, the “Hepatotoxicity (severe hepatitis)” value [8] was 1 and the “Hepatotoxicity (chronic liver disease)” value [9] was 0. For the same molecule, the “Hepatotoxicity (cirrhosis)” value [10] was 0, the “Hepatotoxicity (granulomatous hepatitis)” value [11] was 0 and the “Hepatotoxicity (association with vascular disease)” value [12] was 0. The “Hepatotoxicity (steatosis)” value [13] was 0, the “Hepatotoxicity (malignant tumour)” value [14] was 0 and the “Hepatotoxicity (benign tumour)” value [15] was 0.
In the case of `CCC(Cc1c(I)cc(I)c(N)c1I)C(=O)O` (stereo not given) [IOPANOIC ACID], the “Hepatotoxicity (moderate)” value [1] was 0%, the “Hepatotoxicity (acute)” value [2] was 0% and the “Hepatotoxicity (time to onset)” value [3] was 1 week. The “Hepatotoxicity (moderate)” value [4] was 0, the “Hepatotoxicity (acute)” value [5] was 1 and the “Hepatotoxicity (cytolytic)” value [6] was 1. For the same molecule, the “Hepatotoxicity (choleostasis)” value [7] was 0, the “Hepatotoxicity (severe hepatitis)” value [8] was 0 and the “Hepatotoxicity (chronic liver disease)” value [9] was 0. For the same molecule, the “Hepatotoxicity (cirrhosis)” value [10] was 0, the “Hepatotoxicity (granulomatous hepatitis)” value [11] was 0 and the “Hepatotoxicity (association with vascular disease)” value [12] was 0. For the same molecule, the “Hepatotoxicity (steatosis)” value [13] was 0, the “Hepatotoxicity (malignant tumour)” value [14] was 0 and the “Hepatotoxicity (benign tumour)” value [15] was 0.
For `COCC(=O)Nc1c(I)c(C(=O)NCC(O)CO)c(I)c(C(=O)N(C)CC(O)CO)c1I` (stereo not given) [IOPROMIDE], the “Hepatotoxicity (moderate)” value [1] was 0%, the “Hepatotoxicity (acute)” value [2] was 0% and the “Hepatotoxicity (time to onset)” value [3] was less than 24 h. For the same molecule, the “Hepatotoxicity (moderate)” value [4] was 0, the “Hepatotoxicity (acute)” value [5] was 1 and the “Hepatotoxicity (cytolytic)” value [6] was 1. The “Hepatotoxicity (choleostasis)” value [7] was 0, the “Hepatotoxicity (severe hepatitis)” value [8] was 0 and the “Hepatotoxicity (chronic liver disease)” value [9] was 0. For the same molecule, the “Hepatotoxicity (cirrhosis)” value [10] was 0, the “Hepatotoxicity (granulomatous hepatitis)” value [11] was 0 and the “Hepatotoxicity (association with vascular disease)” value [12] was 0. For the same molecule, the “Hepatotoxicity (steatosis)” value [13] was 0, the “Hepatotoxicity (malignant tumour)” value [14] was 0 and the “Hepatotoxicity (benign tumour)” value [15] was 0.
In the case of `Cc1cc(C(=O)NNCc2ccccc2)no1` [ISOCARBOXAZID], the “Hepatotoxicity (moderate)” value [1] was 0%, the “Hepatotoxicity (acute)” value [2] was 0% and the “Hepatotoxicity (time to onset)” value [3] was 1 month - 4 months. The “Hepatotoxicity (moderate)” value [4] was 1, the “Hepatotoxicity (acute)” value [5] was 4 and the “Hepatotoxicity (cytolytic)” value [6] was 4. For the same molecule, the “Hepatotoxicity (choleostasis)” value [7] was 2, the “Hepatotoxicity (severe hepatitis)” value [8] was 1 and the “Hepatotoxicity (chronic liver disease)” value [9] was 0. The “Hepatotoxicity (cirrhosis)” value [10] was 0, the “Hepatotoxicity (granulomatous hepatitis)” value [11] was 0 and the “Hepatotoxicity (association with vascular disease)” value [12] was 0. The “Hepatotoxicity (steatosis)” value [13] was 0, the “Hepatotoxicity (malignant tumour)” value [14] was 0 and the “Hepatotoxicity (benign tumour)” value [15] was 0.
For `CC(C)[N+](C)(CCC(C(N)=O)(c1ccccc1)c1ccccc1)C(C)C` [ISOPROPAMIDE], the “Hepatotoxicity (moderate)” value [1] was 0%, the “Hepatotoxicity (acute)” value [2] was 0% and the “Hepatotoxicity (time to onset)” value [3] was 3 months. For the same molecule, the “Hepatotoxicity (moderate)” value [4] was 0, the “Hepatotoxicity (acute)” value [5] was 1 and the “Hepatotoxicity (cytolytic)” value [6] was 1. The “Hepatotoxicity (choleostasis)” value [7] was 0, the “Hepatotoxicity (severe hepatitis)” value [8] was 0 and the “Hepatotoxicity (chronic liver disease)” value [9] was 0. For the same molecule, the “Hepatotoxicity (cirrhosis)” value [10] was 0, the “Hepatotoxicity (granulomatous hepatitis)” value [11] was 0 and the “Hepatotoxicity (association with vascular disease)” value [12] was 0. The “Hepatotoxicity (steatosis)” value [13] was 0, the “Hepatotoxicity (malignant tumour)” value [14] was 0 and the “Hepatotoxicity (benign tumour)” value [15] was 0.
In the case of `CO[C@@H]1[C@@H](O[C@@H]2O[C@H](C)[C@@H](O[C@H]3C[C@@](C)(O)[C@@H](OC(=O)CC(C)C)[C@H](C)O3)[C@H](N(C)C)[C@H]2O)[C@@H](CC=O)C[C@@H](C)[C@@H](O)/C=C/C=C/C[C@@H](C)OC(=O)C[C@H]1OC(C)=O` [JOSAMYCIN], the “Hepatotoxicity (moderate)” value [1] was 20%, the “Hepatotoxicity (acute)” value [2] was 0% and the “Hepatotoxicity (time to onset)” value [3] was 5 days - 2 weeks. The “Hepatotoxicity (moderate)” value [4] was 5, the “Hepatotoxicity (acute)” value [5] was 9 and the “Hepatotoxicity (cytolytic)” value [6] was 6. The “Hepatotoxicity (choleostasis)” value [7] was 5, the “Hepatotoxicity (severe hepatitis)” value [8] was 0 and the “Hepatotoxicity (chronic liver disease)” value [9] was 0. For the same molecule, the “Hepatotoxicity (cirrhosis)” value [10] was 0, the “Hepatotoxicity (granulomatous hepatitis)” value [11] was 0 and the “Hepatotoxicity (association with vascular disease)” value [12] was 0. For the same molecule, the “Hepatotoxicity (steatosis)” value [13] was 0, the “Hepatotoxicity (malignant tumour)” value [14] was 0 and the “Hepatotoxicity (benign tumour)” value [15] was 0.
In the case of `O=C(c1ccccc1)c1ccc2n1CCC2C(=O)O` (stereo not given) [KETOROLAC], the “Hepatotoxicity (moderate)” value [1] was 32%, the “Hepatotoxicity (acute)” value [2] was 1% and the “Hepatotoxicity (time to onset)” value [3] was 1 day - 10 days. The “Hepatotoxicity (moderate)” value [4] was 1, the “Hepatotoxicity (acute)” value [5] was 1 and the “Hepatotoxicity (cytolytic)” value [6] was 1. The “Hepatotoxicity (choleostasis)” value [7] was 1, the “Hepatotoxicity (severe hepatitis)” value [8] was 0 and the “Hepatotoxicity (chronic liver disease)” value [9] was 0. The “Hepatotoxicity (cirrhosis)” value [10] was 0, the “Hepatotoxicity (granulomatous hepatitis)” value [11] was 0 and the “Hepatotoxicity (association with vascular disease)” value [12] was 0. For the same molecule, the “Hepatotoxicity (steatosis)” value [13] was 0, the “Hepatotoxicity (malignant tumour)” value [14] was 0 and the “Hepatotoxicity (benign tumour)” value [15] was 0.
In the case of `N[C@@H](Cc1ccc(O)c(O)c1)C(=O)O` [LEVODOPA], the “Hepatotoxicity (moderate)” value [1] was 9%, the “Hepatotoxicity (acute)” value [2] was 3.3% and the “Hepatotoxicity (time to onset)” value [3] was less than 3 months. For the same molecule, the “Hepatotoxicity (moderate)” value [4] was 1, the “Hepatotoxicity (acute)” value [5] was 4 and the “Hepatotoxicity (cytolytic)” value [6] was 0. For the same molecule, the “Hepatotoxicity (choleostasis)” value [7] was 1, the “Hepatotoxicity (severe hepatitis)” value [8] was 0 and the “Hepatotoxicity (chronic liver disease)” value [9] was 0. The “Hepatotoxicity (cirrhosis)” value [10] was 0, the “Hepatotoxicity (granulomatous hepatitis)” value [11] was 0 and the “Hepatotoxicity (association with vascular disease)” value [12] was 0. The “Hepatotoxicity (steatosis)” value [13] was 1, the “Hepatotoxicity (malignant tumour)” value [14] was 0 and the “Hepatotoxicity (benign tumour)” value [15] was 0.
In the case of `C[C@H]1COc2c(N3CCN(C)CC3)c(F)cc3c(=O)c(C(=O)O)cn1c23.C[C@H]1COc2c(N3CCN(C)CC3)c(F)cc3c(=O)c(C(=O)O)cn1c23.O` [LEVOFLOXACIN], the “Hepatotoxicity (moderate)” value [1] was 30%, the “Hepatotoxicity (acute)” value [2] was 0% and the “Hepatotoxicity (time to onset)” value [3] was 2 days - 3 weeks. For the same molecule, the “Hepatotoxicity (moderate)” value [4] was 17, the “Hepatotoxicity (acute)” value [5] was 7 and the “Hepatotoxicity (cytolytic)” value [6] was 6. The “Hepatotoxicity (choleostasis)” value [7] was 2, the “Hepatotoxicity (severe hepatitis)” value [8] was 5 and the “Hepatotoxicity (chronic liver disease)” value [9] was 0. The “Hepatotoxicity (cirrhosis)” value [10] was 0, the “Hepatotoxicity (granulomatous hepatitis)” value [11] was 0 and the “Hepatotoxicity (association with vascular disease)” value [12] was 0. For the same molecule, the “Hepatotoxicity (steatosis)” value [13] was 0, the “Hepatotoxicity (malignant tumour)” value [14] was 0 and the “Hepatotoxicity (benign tumour)” value [15] was 0.
With `COc1ccc2c(c1)N(C[C@H](C)CN(C)C)c1ccccc1S2` [LEVOMEPROMAZINE] the “Hepatotoxicity (moderate)” value [1] was 4.5%, the “Hepatotoxicity (acute)” value [2] was 2.7% and the “Hepatotoxicity (time to onset)” value [3] was 1.2 months - 2 months. The “Hepatotoxicity (moderate)” value [4] was 2, the “Hepatotoxicity (acute)” value [5] was 4 and the “Hepatotoxicity (cytolytic)” value [6] was 1. For the same molecule, the “Hepatotoxicity (choleostasis)” value [7] was 3, the “Hepatotoxicity (severe hepatitis)” value [8] was 0 and the “Hepatotoxicity (chronic liver disease)” value [9] was 0. For the same molecule, the “Hepatotoxicity (cirrhosis)” value [10] was 0, the “Hepatotoxicity (granulomatous hepatitis)” value [11] was 0 and the “Hepatotoxicity (association with vascular disease)” value [12] was 0. The “Hepatotoxicity (steatosis)” value [13] was 0, the “Hepatotoxicity (malignant tumour)” value [14] was 0 and the “Hepatotoxicity (benign tumour)” value [15] was 0.
In the case of `O=C(O)Cc1cn(-c2ccccc2)nc1-c1ccc(Cl)cc1` [LONAZOLAC], the “Hepatotoxicity (moderate)” value [1] was 0%, the “Hepatotoxicity (acute)” value [2] was 1.3% and the “Hepatotoxicity (time to onset)” value [3] was 1 month. The “Hepatotoxicity (moderate)” value [4] was 0, the “Hepatotoxicity (acute)” value [5] was 1 and the “Hepatotoxicity (cytolytic)” value [6] was 0. For the same molecule, the “Hepatotoxicity (choleostasis)” value [7] was 0, the “Hepatotoxicity (severe hepatitis)” value [8] was 0 and the “Hepatotoxicity (chronic liver disease)” value [9] was 0. For the same molecule, the “Hepatotoxicity (cirrhosis)” value [10] was 0, the “Hepatotoxicity (granulomatous hepatitis)” value [11] was 0 and the “Hepatotoxicity (association with vascular disease)” value [12] was 0. For the same molecule, the “Hepatotoxicity (steatosis)” value [13] was 0, the “Hepatotoxicity (malignant tumour)” value [14] was 0 and the “Hepatotoxicity (benign tumour)” value [15] was 0.
In the case of `CN1CCN(C2=Nc3ccccc3Oc3ccc(Cl)cc32)CC1` [LOXAPINE], the “Hepatotoxicity (moderate)” value [1] was 0%, the “Hepatotoxicity (acute)” value [2] was 0% and the “Hepatotoxicity (time to onset)” value [3] was 1 week - 3 weeks. For the same molecule, the “Hepatotoxicity (moderate)” value [4] was 2, the “Hepatotoxicity (acute)” value [5] was 1 and the “Hepatotoxicity (cytolytic)” value [6] was 0. For the same molecule, the “Hepatotoxicity (choleostasis)” value [7] was 1, the “Hepatotoxicity (severe hepatitis)” value [8] was 0 and the “Hepatotoxicity (chronic liver disease)” value [9] was 0. For the same molecule, the “Hepatotoxicity (cirrhosis)” value [10] was 0, the “Hepatotoxicity (granulomatous hepatitis)” value [11] was 0 and the “Hepatotoxicity (association with vascular disease)” value [12] was 0. The “Hepatotoxicity (steatosis)” value [13] was 0, the “Hepatotoxicity (malignant tumour)” value [14] was 0 and the “Hepatotoxicity (benign tumour)” value [15] was 0.
In the case of `CN(C)[C@@H]1C(O)=C(C(=O)NCNCCCC[C@H](N)C(=O)O)C(=O)[C@@]2(O)C(O)=C3C(=O)c4c(O)cccc4[C@@](C)(O)[C@H]3C[C@@H]12` [LYMECYCLINE], the “Hepatotoxicity (moderate)” value [1] was 0%, the “Hepatotoxicity (acute)” value [2] was 0% and the “Hepatotoxicity (time to onset)” value [3] was 2.4 years. For the same molecule, the “Hepatotoxicity (moderate)” value [4] was 0, the “Hepatotoxicity (acute)” value [5] was 1 and the “Hepatotoxicity (cytolytic)” value [6] was 1. For the same molecule, the “Hepatotoxicity (choleostasis)” value [7] was 0, the “Hepatotoxicity (severe hepatitis)” value [8] was 0 and the “Hepatotoxicity (chronic liver disease)” value [9] was 0. For the same molecule, the “Hepatotoxicity (cirrhosis)” value [10] was 0, the “Hepatotoxicity (granulomatous hepatitis)” value [11] was 0 and the “Hepatotoxicity (association with vascular disease)” value [12] was 0. The “Hepatotoxicity (steatosis)” value [13] was 0, the “Hepatotoxicity (malignant tumour)” value [14] was 0 and the “Hepatotoxicity (benign tumour)” value [15] was 0.
